Source: ChEMBL document CHEMBL1145114, “The combi-targeting concept: chemical dissection of the dual targeting properties of a series of "combi-triazenes"” (J Med Chem, 2003)

Experiments:
A-431 = experiment: In vitro inhibition of A431 (human carcinoma) cell basal growth.; type: functional, cell-based
NIH3T3 [1] = experiment: cells; conditions: Mus musculus
Description: Selective inhibition of serum stimulated growth of NIH3T3 isogenic cells

NIH3T3 [2] = experiment: cells; conditions: Mus musculus; remark: listed apart in the source
Description: Selective inhibition of serum stimulated growth of NIH3T3neu isogenic cells

[3] = molecular target: Epidermal growth factor receptor (Homo sapiens, UniProt P00533); experiment: In vitro inhibition of Epidermal growth factor receptor tyrosine kinase isolated from A431 (human carcinoma).
Chain of Epidermal growth factor receptor (P00533 whole entry): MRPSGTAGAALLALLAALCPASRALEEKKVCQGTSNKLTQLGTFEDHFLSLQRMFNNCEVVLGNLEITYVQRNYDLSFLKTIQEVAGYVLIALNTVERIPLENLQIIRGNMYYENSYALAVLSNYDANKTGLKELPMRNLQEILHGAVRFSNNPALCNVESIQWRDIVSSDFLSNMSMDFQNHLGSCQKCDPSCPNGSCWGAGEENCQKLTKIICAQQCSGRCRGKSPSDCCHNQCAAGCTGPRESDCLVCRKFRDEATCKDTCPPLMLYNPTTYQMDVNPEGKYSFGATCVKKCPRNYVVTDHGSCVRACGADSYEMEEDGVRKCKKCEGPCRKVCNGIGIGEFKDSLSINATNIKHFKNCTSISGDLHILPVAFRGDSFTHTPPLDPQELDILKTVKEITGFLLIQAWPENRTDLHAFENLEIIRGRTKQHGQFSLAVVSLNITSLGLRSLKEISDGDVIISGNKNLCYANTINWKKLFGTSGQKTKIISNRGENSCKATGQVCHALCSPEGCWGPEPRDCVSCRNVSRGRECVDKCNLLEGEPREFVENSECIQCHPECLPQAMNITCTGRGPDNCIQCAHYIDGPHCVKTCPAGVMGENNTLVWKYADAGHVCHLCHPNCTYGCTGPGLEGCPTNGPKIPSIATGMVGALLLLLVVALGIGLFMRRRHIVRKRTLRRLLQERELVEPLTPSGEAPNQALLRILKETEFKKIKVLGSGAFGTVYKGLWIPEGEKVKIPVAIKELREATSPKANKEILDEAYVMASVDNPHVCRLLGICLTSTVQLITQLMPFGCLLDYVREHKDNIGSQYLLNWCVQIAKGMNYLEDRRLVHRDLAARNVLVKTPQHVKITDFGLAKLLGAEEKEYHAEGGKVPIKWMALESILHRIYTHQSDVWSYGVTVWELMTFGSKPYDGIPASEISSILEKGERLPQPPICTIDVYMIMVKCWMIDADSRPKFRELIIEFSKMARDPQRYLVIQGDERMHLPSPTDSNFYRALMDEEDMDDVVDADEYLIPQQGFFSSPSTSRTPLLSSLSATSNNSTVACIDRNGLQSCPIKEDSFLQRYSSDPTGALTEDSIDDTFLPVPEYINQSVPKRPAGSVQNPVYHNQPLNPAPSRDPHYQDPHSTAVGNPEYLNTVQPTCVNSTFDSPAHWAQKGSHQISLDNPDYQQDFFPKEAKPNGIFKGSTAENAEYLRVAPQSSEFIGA

SMILES | IC50 (A-431) [µM] | IC50 (NIH3T3 [1]) [µM] | IC50 (NIH3T3 [2]) [µM] | IC50 [3] [µM]
CN(C)/N=N/c1ccc2ncnc(NCc3ccccc3)c2c1 | 50.3 | 67.3 | 33.9 | 0.482
C/N=N/Nc1ccc2ncnc(Nc3cccc(C)c3)c2c1 | 23.2 | 68.3 | 9.69 | –
Brc1cccc(Nc2ncnc3ccc(NN=NCc4ccccc4)cc23)c1 | 20 | 60.2 | 11.2 | 0.025
C/N=N/Nc1ccc2ncnc(Nc3cccc(Br)c3)c2c1 | 16 | 33 | 4.32 | –
CN(C)CCN=NNc1ccc2ncnc(Nc3cccc(Br)c3)c2c1 | 12.4 | 16.7 | 3.4 | 0.038
C/N=N/Nc1ccc2ncnc(Nc3cccc(Cl)c3)c2c1 | 16.7 | 32.1 | 4.16 | –
CN(C)/N=N/c1ccc2ncnc(Nc3cccc(Cl)c3)c2c1 | 100 | 60.4 | 3.09 | 0.014
CN(c1ccccc1)c1ncnc2ccc(NN=NCc3ccccn3)cc12 | 25.1 | 39.4 | 64.1 | 9.3
CN(c1ccccc1)c1ncnc2ccc(N)cc12 | 116 | 71.4 | 99.4 | 8.4
CN=NNc1ccc2ncnc(NCc3ccccc3)c2c1 | 20 | 50.3 | 34.9 | 0.335
COCC/N=N/Nc1ccc2ncnc(Nc3cccc(Br)c3)c2c1 | 40 | 42.9 | 2.98 | –
Cc1cccc(Nc2ncnc3ccc(N)cc23)c1 | 65 | 90 | 7.2 | –
CN(C)/N=N/c1ccc2ncnc(Nc3cccc(Br)c3)c2c1 | 100 | 52.5 | 3.74 | 0.011
CN=NNc1ccc2ncnc(N(C)c3ccccc3)c2c1 | 89.5 | 30.5 | 81 | 8
Cc1cccc(Nc2ncnc3ccc(/N=N/N(C)C)cc23)c1 | 94 | 50.8 | 6.94 | 0.024
Nc1ccc2ncnc(Nc3cccc(Br)c3)c2c1 | 45 | 52.9 | 4.1 | –
CN(C)/N=N/c1ccc2ncnc(N(C)c3ccccc3)c2c1 | 29.8 | 47 | 31.6 | 13.3
Brc1cccc(Nc2ncnc3ccc(N/N=N/CCN4CCOCC4)cc23)c1 | 33 | 22.2 | 2.92 | 0.064
Nc1ccc2ncnc(NCc3ccccc3)c2c1 | 25 | 96.7 | 33.8 | 0.508
Brc1cccc(Nc2ncnc3ccc(NN=NCc4ccccn4)cc23)c1 | 11.4 | 30.6 | 4.06 | 0.238
